Like-named read-outs stand apart in the source and are kept apart here.
Tests used:
[1] = biological target: T1, HCV NS3/4A protease complex, BMS strain (UniProt P27958, species not given/STRAIN_BMS); assay: FRET peptide assay to monitor HCV NS3/4A proteolytic activity (BMS strain); format: biochemical, Hepatitis C virus (genotype 1a)
T1 construct: DNA encoding the recombinant HCV NS3/4A protease complex (amino acids 1027 to 1711) for these strains [H77 and J4L6S]; fused on or other part: For the H77 and J4L6S constructs, a three-lysine solubilising tail at the NS4A C-terminus and a Ni-NTA-purifiable tag from pET21b
Description: Generation of Recombinant HCV NS3/4A Protease Complex
HCV NS3 protease complexes, derived from the BMS strain, H77 strain or J4L6S strain, were generated, as described below. These purified recombinant proteins were generated for use in a homogeneous assay (see below) to provide an indication of how effective compounds of the present disclosure would be in inhibiting HCV NS3 proteolytic activity.
Serum from an HCV-infected patient was obtained from Dr. T. Wright, San Francisco Hospital. An engineered full-length cDNA (compliment deoxyribonucleic acid) template of the HCV genome (BMS strain) was constructed from DNA fragments obtained by reverse transcription-PCR (RT-PCR) of serum RNA (ribonucleic acid) and using primers selected on the basis of homology between other genotype 1a strains. From the determination of the entire genome sequence, a genotype 1a was assigned to the HCV isolate according to the classification of Simmonds et al. (See P Simmonds, K A Rose, S Graham, S W Chan, F McOmish, B C Dow, E A Follett, P L Yap and H Marsden, J. Clin. Microbiol., 31(6), 1493-1503 (1993)). […] The infectious clones, H77 (1a genotype) and J4L6S (1b genotype) were obtained from R. Purcell (NIH) and the sequences are published in Genbank (AAB67036, see Yanagi, M., Purcell, R. H., Emerson, S. U. and Bukh, J. Proc. Natl. Acad. Sci. U.S.A. 94(16), 8738-8743 (1997); AF054247, see Yanagi, M., St Claire, M., Shapiro, M., Emerson, S. U., Purcell, R. H. and Bukh, J, Virology 244 (1), 161-172. (1998)).
The H77 and J4L6S strains were used for production of recombinant NS3/4A protease complexes. DNA encoding the recombinant HCV NS3/4A protease complex (amino acids 1027 to 1711) for these strains were manipulated as described by P. Gallinari et al. (see Gallinari P, Paolini C, Brennan D, Nardi C, Steinkuhler C, De Francesco R. Biochemistry. 38(17):5620-32, (1999)). Briefly, a three-lysine solubilizing tail was added at the 3′-end of the NS4A coding region. The cysteine in the P1 position of the NS4A-NS4B cleavage site (amino acid 1711) was changed to a glycine to avoid the proteolytic cleavage of the lysine tag. Furthermore, a cysteine to serine mutation was introduced by PCR at amino acid position 1454 to prevent the autolytic cleavage in the NS3 helicase domain. The variant DNA fragment was cloned in the pET21b bacterial expression vector (Novagen) and the NS3/4A complex was expressed in Escherichia coli strain BL21 (DE3) (Invitrogen) following the protocol described by P. Gallinari et al. (see Gallinari P, Brennan D, Nardi C, Brunetti M, Tomei L, Steinkuhler C, De Francesco R., J. Virol. 72(8):6758-69 (1998)) with modifications. Briefly, the NS3/4A protease complex expression was induced with 0.5 millimolar (mM) Isopropyl β-D-1-thiogalactopyranoside (IPTG) for 22 hours (h) at 20° C. A typical fermentation (1 Liter (L)) yielded approximately 10 grams (g) of wet cell paste. The cells were resuspended in lysis buffer (10 mL/g) consisting of 25 mM N-(2-Hydroxyethyl)piperazine-N′-(2-Ethane Sulfonic acid) (HEPES), pH 7.5, 20% glycerol, 500 mM Sodium Chloride (NaCl), 0.5% Triton X-100, 1 microgram/milliliter (“μg/mL”) lysozyme, 5 mM Magnesium Chloride (MgCl2), 1 μg/mL DnaseI, 5 mM β-Mercaptoethanol (βME), Protease inhibitor—Ethylenediamine Tetraacetic acid (EDTA) free (Roche), homogenized and incubated for 20 minutes (min) at 4° C. The homogenate was sonicated and clarified by ultra-centrifugation at 235000 g for 1 h at 4° C. Imidazole was added to the supernatant to a final concentration of 15 mM and the pH adjusted to 8.0. The crude protein extract was loaded on a Nickel—Nitrilotriacetic acid (Ni-NTA) column pre-equilibrated with buffer B (25 mM HEPES, pH 8.0, 20% glycerol, 500 mM NaCl, 0.5% Triton X-100, 15 mM imidazole, 5 mM βME). The sample was loaded at a flow rate of 1 mL/min. The column was washed with 15 column volumes of buffer C (same as buffer B except with 0.2% Triton X-100). […]

[2] = system: HCV replicon in HUH-7 cells; assay: HCV replicon FRET assay; format: cell-based, Hepatitis C virus (strain 1b); settings: HCV replicon cell assay, HUH-7, read-out: EC50 Range
Description: Generation of HCV Replicon
An HCV replicon whole cell system was established as described by Lohmann V, Korner F, Koch J, Herian U, Theilmann L, Bartenschlager R., Science 285(5424):110-3 (1999). This system enabled us to evaluate the effects of our HCV Protease compounds on HCV RNA replication. Briefly, using the HCV strain 1b sequence described in the Lohmann paper (Assession number:AJ238799), an HCV cDNA was synthesized by Operon Technologies, Inc. (Alameda, Calif.), and the full-length replicon was then assembled in plasmid pGem9zf(+) (Promega, Madison, Wis.) using standard molecular biology techniques. The replicon consists of (i) the HCV 5′ UTR fused to the first 12 amino acids of the capsid protein, (ii) the neomycin phosphotransferase gene (neo), (iii) the IRES from encephalomyocarditis virus (EMCV), and (iv) HCV NS3 to NS5B genes and the HCV 3′ UTR. Plasmid DNAs were linearized with ScaI and RNA transcripts were synthesized in vitro using the T7 MegaScript transcription kit (Ambion, Austin, Tex.) according to manufacturer's directions. In vitro transcripts of the cDNA were transfected into the human hepatoma cell line, HUH-7. […] Resulting cell lines were characterized for positive and negative strand RNA production and protein production over time.
The HCV replicon FRET assay was developed to monitor the inhibitory effects of compounds described in the disclosure on HCV viral replication. HUH-7 cells, constitutively expressing the HCV replicon, were grown in Dulbecco's Modified Eagle Media (DMEM) (Gibco-BRL) containing 10% Fetal calf serum (FCS) (Sigma) and 1 mg/mL G418 (Gibco-BRL). Cells were seeded the night before (1.5×10^4 cells/well) in 96-well tissue-culture sterile plates. Compound and no compound controls were prepared in DMEM containing 4% FCS, 1:100 Penicillin/Streptomysin (Gibco-BRL), 1:100 L-glutamine and 5% DMSO in the dilution plate (0.5% DMSO final concentration in the assay). Compound/DMSO mixes were added to the cells and incubated for 4 days at 37° C. After 4 days, cells were first assessed for cytotoxicity using alamar Blue (Trek Diagnotstic Systems) for a CC50 reading. The toxicity of compound (CC50) was determined by adding 1/10th volume of alamar Blue to the media incubating the cells. After 4 h, the fluorescence signal from each well was read, with an excitation wavelength at 530 nm and an emission wavelength of 580 nm, using the Cytofluor Series 4000 (Perspective Biosystems). Plates were then rinsed thoroughly with Phosphate-Buffered Saline (PBS) (3 times 150 μl).

[3] = NS3/4A BMS strain, enzyme assay; read-out: IC 50 Range
[4] = read-out: IC 50 Range; NS3/4A BMS strain, enzyme assay

T1 sequence (P27958 1027-1657, stated change not applied, one chain of several): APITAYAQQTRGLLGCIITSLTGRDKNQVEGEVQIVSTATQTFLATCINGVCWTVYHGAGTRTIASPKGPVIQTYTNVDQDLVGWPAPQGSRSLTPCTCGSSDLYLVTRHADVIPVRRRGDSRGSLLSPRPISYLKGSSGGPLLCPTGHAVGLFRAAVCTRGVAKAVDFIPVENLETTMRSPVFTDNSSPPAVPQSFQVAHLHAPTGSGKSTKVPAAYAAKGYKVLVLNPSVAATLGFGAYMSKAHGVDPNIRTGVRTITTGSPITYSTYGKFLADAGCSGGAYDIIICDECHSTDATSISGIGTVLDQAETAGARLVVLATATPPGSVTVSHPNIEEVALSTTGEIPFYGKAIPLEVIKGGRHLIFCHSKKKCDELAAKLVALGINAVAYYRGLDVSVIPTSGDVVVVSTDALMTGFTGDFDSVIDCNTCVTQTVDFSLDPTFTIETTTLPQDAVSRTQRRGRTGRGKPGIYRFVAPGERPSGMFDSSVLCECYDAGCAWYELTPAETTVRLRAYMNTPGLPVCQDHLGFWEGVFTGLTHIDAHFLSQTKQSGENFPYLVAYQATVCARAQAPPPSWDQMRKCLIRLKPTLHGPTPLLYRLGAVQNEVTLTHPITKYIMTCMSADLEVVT

Row | SMILES | IC50 [1, 3] [nM] | EC50 ([2]; Hepatitis C virus) [nM] | EC50 [2] [nM] | IC50 [1, 4] [nM]
1 | C=CC1CC1(NC(=O)[C@@H]1C[C@@H](NC(=O)c2cc(Cl)nc3ccccc23)CN1C(=O)[C@@H](NC(=O)CC1CC1)C(C)(C)C)C(=O)NS(=O)(=O)C1CC1 (stereo partly drawn) [Compound 13] | 150 to 15000 | > 15000 |  | 
2 | C=CC1CC1(NC(=O)[C@@H]1C[C@@H](NC(=O)c2ccncc2)CN1C(=O)[C@@H](NC(=O)CC1CC1)C(C)(C)C)C(=O)NS(=O)(=O)C1CC1 (stereo partly drawn) [Compound 14] | 150 to 15000 | > 15000 |  | 
3 | C=CC1CC1(NC(=O)[C@@H]1C[C@@H](NC(=O)c2cccc3ccccc23)CN1C(=O)[C@@H](NC(=O)CC1CC1)C(C)(C)C)C(=O)NS(=O)(=O)C1CC1 (stereo partly drawn) [Compound 16] | < 150 | > 15000 |  | 
4 | C=CC1CC1(NC(=O)[C@@H]1C[C@@H](NC(=O)c2c(C)nc3ccccn23)CN1C(=O)[C@@H](NC(=O)CC1CC1)C(C)(C)C)C(=O)NS(=O)(=O)C1CC1 (stereo partly drawn) [Compound 17] | < 150 | > 15000 |  | 
5 | C=CC1CC1(NC(=O)[C@@H]1C[C@@H](NC(=O)c2c(C)nc3ccccn23)CN1C(=O)[C@@H](NC(=O)CC1CC1)C(C)(C)C)C(=O)NS(=O)(=O)C1CC1 (stereo partly drawn) [Compound 18] | 150 to 15000 |  | > 15000 | 
6 | C=CC1CC1(NC(=O)[C@@H]1C[C@@H](NC(=O)c2cn(C)c3ccccc23)CN1C(=O)[C@@H](NC(=O)CC1CC1)C(C)(C)C)C(=O)NS(=O)(=O)C1CC1 (stereo partly drawn) [Compound 19] |  | > 15000 |  | < 150
7 | C=CC1CC1(NC(=O)[C@@H]1C[C@@H](NC(=O)c2c(C)nc3sccn23)CN1C(=O)[C@@H](NC(=O)CC1CC1)C(C)(C)C)C(=O)NS(=O)(=O)C1CC1 (stereo partly drawn) [Compound 20] | < 150 | > 15000 |  | 
8 | C=CC1CC1(NC(=O)[C@@H]1C[C@@H](NC(=O)c2c(-c3ccc(Cl)cc3)cn3ccccc23)CN1C(=O)[C@@H](NC(=O)CC1CC1)C(C)(C)C)C(=O)NS(=O)(=O)C1CC1 (stereo partly drawn) [Compound 21] | < 150 | 150 to 15000 |  | 
9 | C=CC1CC1(NC(=O)[C@@H]1C[C@@H](NC(=O)c2cnc3c(c(C)nn3C)c2Cl)CN1C(=O)[C@@H](NC(=O)CC1CC1)C(C)(C)C)C(=O)NS(=O)(=O)C1CC1 (stereo partly drawn) [Compound 22] | < 150 | > 15000 |  | 
10 | C=CC1CC1(NC(=O)[C@@H]1C[C@@H](NC(=O)c2nccc3ccccc23)CN1C(=O)[C@@H](NC(=O)CC1CC1)C(C)(C)C)C(=O)NS(=O)(=O)C1CC1 (stereo partly drawn) [Compound 24] | 150 to 15000 | > 15000 |  | 
11 | C=CC1CC1(NC(=O)[C@@H]1C[C@@H](NC(=O)c2ccc3ccccc3n2)CN1C(=O)[C@@H](NC(=O)CC1CC1)C(C)(C)C)C(=O)NS(=O)(=O)C1CC1 (stereo partly drawn) [Compound 25] | < 150 | 150 to 15000 |  | 
12 | C=CC1CC1(NC(=O)[C@@H]1C[C@@H](NC(=O)c2cc3ccccc3n2C)CN1C(=O)[C@@H](NC(=O)CC1CC1)C(C)(C)C)C(=O)NS(=O)(=O)C1CC1 (stereo partly drawn) [Compound 26] | < 150 | 150 to 15000 |  | 
13 | C=CC1CC1(NC(=O)[C@@H]1C[C@@H](NC(=O)c2cc3ccccc3o2)CN1C(=O)[C@@H](NC(=O)CC1CC1)C(C)(C)C)C(=O)NS(=O)(=O)C1CC1 (stereo partly drawn) [Compound 27] | < 150 | 150 to 15000 |  | 
14 | C=CC1CC1(NC(=O)[C@@H]1C[C@@H](NC(=O)c2cc3ccccc3cn2)CN1C(=O)[C@@H](NC(=O)CC1CC1)C(C)(C)C)C(=O)NS(=O)(=O)C1CC1 (stereo partly drawn) [Compound 28] | < 150 | 150 to 15000 |  | 
15 | C=CC1CC1(NC(=O)[C@@H]1C[C@@H](NC(=O)c2sc3ccccc3c2Cl)CN1C(=O)[C@@H](NC(=O)CC1CC1)C(C)(C)C)C(=O)NS(=O)(=O)C1CC1 (stereo partly drawn) [Compound 29] | < 150 | 150 to 15000 |  | 
16 | C=CC1CC1(NC(=O)[C@@H]1C[C@@H](NC(=O)c2cccc3c2OCC3)CN1C(=O)[C@@H](NC(=O)CC1CC1)C(C)(C)C)C(=O)NS(=O)(=O)C1CC1 (stereo partly drawn) [Compound 30] | 150 to 15000 | > 15000 |  | 
17 | C=CC1CC1(NC(=O)[C@@H]1C[C@@H](NC(=O)c2cccc3cccnc23)CN1C(=O)[C@@H](NC(=O)CC1CC1)C(C)(C)C)C(=O)NS(=O)(=O)C1CC1 (stereo partly drawn) [Compound 31] | < 150 | 150 to 15000 |  | 
18 | C=CC1CC1(NC(=O)[C@@H]1C[C@@H](NC(=O)c2cc3ccccc3s2)CN1C(=O)[C@@H](NC(=O)CC1CC1)C(C)(C)C)C(=O)NS(=O)(=O)C1CC1 (stereo partly drawn) [Compound 32] | < 150 | 150 to 15000 |  | 
19 | C=CC1CC1(NC(=O)C1CC(NC(=O)c2cccc[n+]2[O-])CN1C(=O)C(NC(=O)CC1CC1)C(C)(C)C)C(=O)NS(=O)(=O)C1CC1 (stereo not drawn) [Compound 33] |  | > 15000 |  | 150 to 15000
20 | C=CC1CC1(NC(=O)C1CC(NC(=O)c2ccc3ccccc3[n+]2[O-])CN1C(=O)C(NC(=O)CC1CC1)C(C)(C)C)C(=O)NS(=O)(=O)C1CC1 (stereo not drawn) [Compound 34] |  | 150 to 15000 |  | < 150
21 | C=CC1CC1(NC(=O)[C@@H]1C[C@@H](NC(=O)c2ccccc2OC)CN1C(=O)[C@@H](NC(=O)CC1CC1)C(C)(C)C)C(=O)NS(=O)(=O)C1CC1 (stereo partly drawn) [Compound 35] |  | > 15000 |  | 150 to 15000
